# From paper PMC5762315, “Inhibition of polo-like kinase 4 (PLK4): a new therapeutic option for rhabdoid tumors and pediatric medulloblastoma” (Oncotarget, 2017)
# Where “and” joins values, the source holds several entries; their conditions need not be identical. Identical values can stand only once.
# Key:
# Assay in all cases: biochemical
# Assay type in all cases: biochemical
# various kinases [1] = biological target: various kinases (Homo sapiens, UniProt O75116); details: kinase ROCK2; ZLYTE
# Chain of various kinases (Homo sapiens, UniProt O75116) (O75116 whole entry): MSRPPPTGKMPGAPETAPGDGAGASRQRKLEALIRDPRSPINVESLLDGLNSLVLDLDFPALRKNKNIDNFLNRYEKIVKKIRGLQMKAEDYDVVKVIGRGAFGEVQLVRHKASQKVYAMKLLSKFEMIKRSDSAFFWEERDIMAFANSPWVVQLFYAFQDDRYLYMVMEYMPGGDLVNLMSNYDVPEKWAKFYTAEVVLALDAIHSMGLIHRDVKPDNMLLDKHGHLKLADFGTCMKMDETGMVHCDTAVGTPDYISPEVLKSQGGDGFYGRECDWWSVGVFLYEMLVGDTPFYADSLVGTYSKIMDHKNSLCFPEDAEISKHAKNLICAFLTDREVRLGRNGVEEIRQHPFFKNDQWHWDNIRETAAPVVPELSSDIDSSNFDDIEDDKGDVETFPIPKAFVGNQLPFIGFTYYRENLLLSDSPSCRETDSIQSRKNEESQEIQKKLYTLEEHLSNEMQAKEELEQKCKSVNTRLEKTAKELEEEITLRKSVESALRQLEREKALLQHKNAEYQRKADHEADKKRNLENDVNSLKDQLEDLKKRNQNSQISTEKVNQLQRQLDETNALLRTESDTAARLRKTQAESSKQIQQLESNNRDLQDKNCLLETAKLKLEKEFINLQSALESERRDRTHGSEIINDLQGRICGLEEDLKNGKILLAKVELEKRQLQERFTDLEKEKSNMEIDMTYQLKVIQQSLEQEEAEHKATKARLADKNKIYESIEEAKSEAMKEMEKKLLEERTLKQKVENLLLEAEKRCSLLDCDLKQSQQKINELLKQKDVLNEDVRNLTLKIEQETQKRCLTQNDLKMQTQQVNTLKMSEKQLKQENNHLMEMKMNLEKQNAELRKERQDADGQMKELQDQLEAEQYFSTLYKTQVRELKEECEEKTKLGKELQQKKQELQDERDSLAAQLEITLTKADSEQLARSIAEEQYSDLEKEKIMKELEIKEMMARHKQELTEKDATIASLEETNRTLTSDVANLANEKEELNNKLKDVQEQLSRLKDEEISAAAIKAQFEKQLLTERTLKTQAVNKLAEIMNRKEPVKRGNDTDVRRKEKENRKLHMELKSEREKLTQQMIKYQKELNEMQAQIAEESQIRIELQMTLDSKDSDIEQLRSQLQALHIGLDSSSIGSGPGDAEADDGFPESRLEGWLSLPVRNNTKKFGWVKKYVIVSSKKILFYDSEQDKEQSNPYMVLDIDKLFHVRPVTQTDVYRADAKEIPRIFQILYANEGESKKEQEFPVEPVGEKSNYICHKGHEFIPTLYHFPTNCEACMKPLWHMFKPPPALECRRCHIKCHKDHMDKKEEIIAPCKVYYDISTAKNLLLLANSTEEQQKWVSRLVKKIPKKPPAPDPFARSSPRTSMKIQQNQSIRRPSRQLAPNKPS
# various kinases [2] = biological target: various kinases (Homo sapiens, UniProt P00519, G250E); details: ABL1 G250E
# various kinases [3] = biological target: various kinases (Homo sapiens, UniProt P07949, V804E); details: kinase RET V804E; ZLYTE
# Chain of various kinases (Homo sapiens, UniProt P07949, V804E) (P07949 29-1114 V804E): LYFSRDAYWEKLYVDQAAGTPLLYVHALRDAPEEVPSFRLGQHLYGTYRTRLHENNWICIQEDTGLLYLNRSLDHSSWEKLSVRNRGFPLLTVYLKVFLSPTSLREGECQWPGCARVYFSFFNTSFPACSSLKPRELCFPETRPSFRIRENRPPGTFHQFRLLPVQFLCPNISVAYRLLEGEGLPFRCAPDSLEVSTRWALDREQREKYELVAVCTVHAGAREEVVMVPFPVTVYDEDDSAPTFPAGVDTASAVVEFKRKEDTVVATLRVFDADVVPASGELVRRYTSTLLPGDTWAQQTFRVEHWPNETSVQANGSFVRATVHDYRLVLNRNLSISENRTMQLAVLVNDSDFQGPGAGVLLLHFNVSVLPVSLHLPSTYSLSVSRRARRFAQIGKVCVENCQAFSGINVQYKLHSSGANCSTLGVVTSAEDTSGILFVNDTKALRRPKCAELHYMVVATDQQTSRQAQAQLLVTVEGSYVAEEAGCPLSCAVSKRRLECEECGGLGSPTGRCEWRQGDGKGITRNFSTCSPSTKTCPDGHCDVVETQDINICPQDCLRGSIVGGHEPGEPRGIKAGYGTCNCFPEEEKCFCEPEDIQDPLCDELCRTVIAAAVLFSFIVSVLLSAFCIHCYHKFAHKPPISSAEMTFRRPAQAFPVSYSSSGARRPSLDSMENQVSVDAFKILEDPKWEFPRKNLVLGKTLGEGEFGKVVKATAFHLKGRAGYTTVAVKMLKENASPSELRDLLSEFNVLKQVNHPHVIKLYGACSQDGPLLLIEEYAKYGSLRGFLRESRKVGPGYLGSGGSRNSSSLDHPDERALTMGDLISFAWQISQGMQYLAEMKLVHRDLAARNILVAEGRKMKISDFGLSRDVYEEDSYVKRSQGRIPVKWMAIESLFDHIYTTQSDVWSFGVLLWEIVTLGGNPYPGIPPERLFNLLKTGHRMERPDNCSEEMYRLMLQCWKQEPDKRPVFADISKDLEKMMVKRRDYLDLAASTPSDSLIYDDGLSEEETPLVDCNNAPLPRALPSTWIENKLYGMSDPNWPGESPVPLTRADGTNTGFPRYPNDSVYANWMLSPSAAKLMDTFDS
# various kinases [4] = biological target: various kinases (Homo sapiens, UniProt P10721, V559D); details: KIT V559D
# various kinases [5] = biological target: various kinases (Homo sapiens, UniProt P15056, V600E); details: BRAF V599E
# various kinases [6] = biological target: various kinases (Homo sapiens, UniProt P16234); details: PDGFRA (PDGFR alpha)
# various kinases [7] = biological target: various kinases (Homo sapiens, UniProt P19784); details: CSNK2A2 (CK2 alpha 2)
# Chain of various kinases (Homo sapiens, UniProt P19784) (P19784 whole entry): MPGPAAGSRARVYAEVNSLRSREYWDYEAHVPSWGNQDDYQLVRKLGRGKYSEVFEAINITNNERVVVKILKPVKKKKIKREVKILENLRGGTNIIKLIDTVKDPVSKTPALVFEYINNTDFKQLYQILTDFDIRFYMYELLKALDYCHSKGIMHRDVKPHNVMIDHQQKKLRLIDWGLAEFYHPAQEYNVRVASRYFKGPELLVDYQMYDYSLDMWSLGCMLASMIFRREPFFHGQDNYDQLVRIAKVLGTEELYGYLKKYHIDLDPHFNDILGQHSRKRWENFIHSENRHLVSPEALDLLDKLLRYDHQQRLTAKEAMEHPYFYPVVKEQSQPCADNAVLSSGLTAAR
# various kinases [8] = biological target: various kinases (Homo sapiens, UniProt P35968); details: KDR (VEGFR2)
# various kinases [9] = biological target: various kinases (Homo sapiens, UniProt P36888); details: FLT3
# various kinases [10] = biological target: various kinases (Homo sapiens, UniProt P36888, D835Y); details: FLT3 D835Y
# various kinases [11] = biological target: various kinases (Homo sapiens, UniProt P41279); details: MAP3K8 (COT)
# various kinases [12] = biological target: various kinases (Homo sapiens, UniProt P43405); details: kinase SYK; ZLYTE
# various kinases [13] = biological target: various kinases (Homo sapiens, UniProt P49674, R178C); details: CSNK1E (CK1 epsilon) R178C
# various kinases [14] = biological target: various kinases (Homo sapiens, UniProt P54760); details: EPHB4
# various kinases [15] = biological target: various kinases (Homo sapiens, UniProt P54762); details: EPHB1
# various kinases [16] = biological target: various kinases (Homo sapiens, UniProt P80192); details: MAP3K9 (MLK1)
# various kinases [17] = biological target: T1, various kinases (Homo sapiens, UniProt Q06418); details: kinase TYRO3 (RSE); ZLYTE
# T1 sequence (Q06418 41-890): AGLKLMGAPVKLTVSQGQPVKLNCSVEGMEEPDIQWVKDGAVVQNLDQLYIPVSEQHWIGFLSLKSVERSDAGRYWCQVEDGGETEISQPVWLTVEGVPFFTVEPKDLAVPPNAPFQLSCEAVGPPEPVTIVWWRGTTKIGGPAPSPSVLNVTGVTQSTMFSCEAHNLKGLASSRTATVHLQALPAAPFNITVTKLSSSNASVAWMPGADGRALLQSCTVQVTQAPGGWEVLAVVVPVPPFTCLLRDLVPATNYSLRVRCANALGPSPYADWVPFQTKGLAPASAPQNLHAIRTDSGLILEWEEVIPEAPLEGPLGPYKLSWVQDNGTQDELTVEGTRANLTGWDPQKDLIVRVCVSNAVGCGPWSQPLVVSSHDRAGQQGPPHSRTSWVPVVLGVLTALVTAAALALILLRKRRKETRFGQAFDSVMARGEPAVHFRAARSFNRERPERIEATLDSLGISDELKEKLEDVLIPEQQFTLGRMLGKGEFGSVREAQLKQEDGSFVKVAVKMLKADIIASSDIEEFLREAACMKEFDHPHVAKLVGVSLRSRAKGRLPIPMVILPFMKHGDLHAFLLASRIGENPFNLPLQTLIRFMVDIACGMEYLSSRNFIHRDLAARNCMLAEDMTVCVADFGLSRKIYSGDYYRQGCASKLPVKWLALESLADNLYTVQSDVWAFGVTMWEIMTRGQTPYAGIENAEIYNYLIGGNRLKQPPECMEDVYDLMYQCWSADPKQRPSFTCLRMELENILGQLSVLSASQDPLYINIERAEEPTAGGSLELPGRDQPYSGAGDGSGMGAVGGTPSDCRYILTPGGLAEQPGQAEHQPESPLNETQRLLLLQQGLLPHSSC
# various kinases [18] = biological target: various kinases (Homo sapiens, UniProt Q13164); details: MAPK7 (ERK5)
# various kinases [19] = biological target: various kinases (Homo sapiens, UniProt Q15349); details: kinase RPS6KA2 (RSK3); ZLYTE
# Chain of various kinases (Homo sapiens, UniProt Q15349) (Q15349 whole entry): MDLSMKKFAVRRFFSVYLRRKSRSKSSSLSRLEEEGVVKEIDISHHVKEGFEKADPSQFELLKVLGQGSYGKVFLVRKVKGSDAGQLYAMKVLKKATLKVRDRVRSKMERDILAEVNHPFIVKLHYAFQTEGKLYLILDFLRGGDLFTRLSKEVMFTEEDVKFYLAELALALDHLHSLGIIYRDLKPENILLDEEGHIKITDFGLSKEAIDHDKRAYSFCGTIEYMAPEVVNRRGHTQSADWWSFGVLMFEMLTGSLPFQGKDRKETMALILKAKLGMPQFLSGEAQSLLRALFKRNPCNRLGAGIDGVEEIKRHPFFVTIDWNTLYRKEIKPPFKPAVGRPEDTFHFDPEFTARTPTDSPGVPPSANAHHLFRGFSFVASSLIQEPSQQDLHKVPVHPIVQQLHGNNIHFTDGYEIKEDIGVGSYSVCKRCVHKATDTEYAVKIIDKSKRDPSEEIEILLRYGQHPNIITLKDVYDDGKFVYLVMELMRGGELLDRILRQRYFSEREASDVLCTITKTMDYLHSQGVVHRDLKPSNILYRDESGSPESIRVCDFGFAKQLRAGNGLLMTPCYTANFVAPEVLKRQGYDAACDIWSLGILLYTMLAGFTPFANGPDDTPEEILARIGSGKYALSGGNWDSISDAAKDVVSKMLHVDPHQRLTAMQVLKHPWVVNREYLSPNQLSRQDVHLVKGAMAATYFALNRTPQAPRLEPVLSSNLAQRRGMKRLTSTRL
# various kinases [20] = biological target: various kinases (Homo sapiens, UniProt Q8IW41); details: MAPKAPK5 (PRAK)
# Chain of various kinases (Homo sapiens, UniProt Q8IW41) (Q8IW41 whole entry): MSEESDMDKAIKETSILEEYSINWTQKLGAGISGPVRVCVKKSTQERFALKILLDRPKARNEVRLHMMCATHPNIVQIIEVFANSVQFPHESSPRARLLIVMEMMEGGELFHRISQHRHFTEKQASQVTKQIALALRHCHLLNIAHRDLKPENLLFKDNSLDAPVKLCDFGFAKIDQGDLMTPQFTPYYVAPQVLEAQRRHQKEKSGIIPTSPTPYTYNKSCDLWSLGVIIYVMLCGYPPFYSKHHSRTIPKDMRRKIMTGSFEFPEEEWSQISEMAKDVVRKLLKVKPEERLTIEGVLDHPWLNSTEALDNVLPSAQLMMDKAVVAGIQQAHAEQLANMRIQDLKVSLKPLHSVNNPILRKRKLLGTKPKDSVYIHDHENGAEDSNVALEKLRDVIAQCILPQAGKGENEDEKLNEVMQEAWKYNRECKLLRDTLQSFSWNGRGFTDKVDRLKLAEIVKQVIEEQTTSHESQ
# various kinases [21] = biological target: T2, various kinases (Homo sapiens, UniProt Q96PF2); details: kinase STK22B (TSSK2); ZLYTE
# T2 sequence (Q96PF2 1-358): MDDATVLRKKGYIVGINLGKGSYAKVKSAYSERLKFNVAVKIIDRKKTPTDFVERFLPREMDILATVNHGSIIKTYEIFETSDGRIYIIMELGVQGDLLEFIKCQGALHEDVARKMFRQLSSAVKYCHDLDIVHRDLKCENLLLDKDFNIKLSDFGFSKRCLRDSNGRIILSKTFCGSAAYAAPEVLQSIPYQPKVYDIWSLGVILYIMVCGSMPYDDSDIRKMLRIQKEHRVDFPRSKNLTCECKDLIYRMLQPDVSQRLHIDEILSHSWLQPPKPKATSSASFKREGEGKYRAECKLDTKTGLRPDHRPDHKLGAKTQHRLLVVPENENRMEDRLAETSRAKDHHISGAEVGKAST
# various kinases [22] = biological target: various kinases (Homo sapiens, UniProt Q9NYY3); details: kinase PLK2; ZLYTE
# Chain of various kinases (Homo sapiens, UniProt Q9NYY3) (Q9NYY3 whole entry): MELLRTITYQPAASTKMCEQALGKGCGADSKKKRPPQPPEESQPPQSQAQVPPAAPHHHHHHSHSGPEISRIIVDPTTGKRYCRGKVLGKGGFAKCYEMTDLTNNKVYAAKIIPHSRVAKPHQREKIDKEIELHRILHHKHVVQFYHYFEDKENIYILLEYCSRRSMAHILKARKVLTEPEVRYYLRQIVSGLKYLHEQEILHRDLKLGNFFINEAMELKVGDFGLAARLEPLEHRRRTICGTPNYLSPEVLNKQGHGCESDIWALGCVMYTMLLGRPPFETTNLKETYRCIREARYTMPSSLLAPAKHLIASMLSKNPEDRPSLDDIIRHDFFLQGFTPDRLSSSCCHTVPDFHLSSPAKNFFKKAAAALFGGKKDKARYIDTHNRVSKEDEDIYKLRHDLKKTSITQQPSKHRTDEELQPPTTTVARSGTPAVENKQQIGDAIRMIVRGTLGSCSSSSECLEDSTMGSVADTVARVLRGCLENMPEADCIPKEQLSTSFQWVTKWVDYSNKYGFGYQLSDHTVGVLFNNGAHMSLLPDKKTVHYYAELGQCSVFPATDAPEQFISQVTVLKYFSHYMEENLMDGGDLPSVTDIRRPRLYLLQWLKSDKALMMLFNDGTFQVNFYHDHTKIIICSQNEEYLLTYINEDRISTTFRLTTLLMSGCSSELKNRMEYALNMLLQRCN
# Throughout, for % Inhibition Average: test concentration or dose not given here.
# Throughout, for % Inhibition Duplicate #1: test concentration or dose not given here.
# Throughout, for % Inhibition Duplicate #2: test concentration or dose not given here.
structure (smiles),measurement,setting,value
COc1ccc2c(c1)[C@]1(C[C@H]1c1ccc3c(/C=C/c4ccc(CN5C[C@@H](C)O[C@@H](C)C5)cc4)n[nH]c3c1)C(=O)N2 [CFI-400945],% Inhibition Average,various kinases [1],1%
same,% Inhibition Duplicate #1,various kinases [1],1%
same,% Inhibition Duplicate #2,various kinases [1],1%
same,% Inhibition,various kinases [2],45% and 42%
same,% Inhibition Average,various kinases [3],0%
same,% Inhibition Duplicate #1,various kinases [3],0%
same,% Inhibition Duplicate #2,various kinases [3],0%
same,% Inhibition,various kinases [4],9% and 10%
same,% Inhibition,various kinases [5],12%
same,% Inhibition,various kinases [6],3% and 2%
same,% Inhibition,various kinases [7],-1% and 0%
same,% Inhibition,various kinases [8],16% and 15%
same,% Inhibition,various kinases [9],74%
same,IC50,various kinases [9],59.7 nM
same,% Inhibition,various kinases [10],27% and 29%
same,% Inhibition,various kinases [11],7%
same,% Inhibition Average,various kinases [12],11%
same,% Inhibition Duplicate #1,various kinases [12],11%
same,% Inhibition Duplicate #2,various kinases [12],11%
same,% Inhibition,various kinases [13],1%
same,% Inhibition,various kinases [14],5% and 8%
same,% Inhibition,various kinases [15],11% and 16%
same,% Inhibition,various kinases [16],9% and 2%
same,% Inhibition Average,various kinases [17],10%
same,% Inhibition Duplicate #1,various kinases [17],10%
same,% Inhibition Duplicate #2,various kinases [17],11%
same,% Inhibition,various kinases [18],-2% and 0%
same,% Inhibition Average,various kinases [19],12%
same,% Inhibition Duplicate #1,various kinases [19],11%
same,% Inhibition Duplicate #2,various kinases [19],13%
same,% Inhibition,various kinases [20],2% and 4%
same,% Inhibition Average,various kinases [21],3%
same,% Inhibition Duplicate #1,various kinases [21],4%
same,% Inhibition Duplicate #2,various kinases [21],2%
same,% Inhibition Average,various kinases [22],4%
same,% Inhibition Duplicate #1,various kinases [22],4%
same,% Inhibition Duplicate #2,various kinases [22],4%
